Assay results published in patent US8425894B2, “Use of oligomers of lactic acid in the treatment of gynaecological disorders” (priority 2007, dated 2013).

Assays:
[1] = Mucoadhesive properties of OMLA formulations (5 graded VAS scale); type: physicochemical; conditions: 0 = no, 4 = very pronounced mucoadhesive properties, fluid form
Procedure: Mucoadhesiveness (or bioadhesiveness) is given according to a 5 graded VAS scale, where 0 denotes no mucoadhesive properties and 4 very pronounced mucoadhesive properties.
Chemical and preformulation experiments were carried out in order to determine mucoadhesiveness of OMLA in gel or semisolid forms (see table below). The mucoadhesiveness for the OMLA judged for fluid, gel, patch, and vagitoria. Muco(Bio)adhesiveness is given according to a 5 graded VAS scale, where 0 denotes no mucoadhesive properties and 4 very pronounced mucoadhesive properties.

[2] = Comparison of in vitro release from lactic acid and OMLA 30 through a dialysis membrane; type: physicochemical
Procedure: 200 mg of LA or OMLA was placed in a dialysis bags. The bags were immersed in 50 ml of water (37° C.) and stirred in the same temperature for 48 hours. After 3, 6, 24 and 48 hours the acceptor liquid was removed and replaced with fresh water. The pH was measured at regular intervals. The liquid was titrated with 0.1 or 0.01 M KOH to measure how much LA equivalents are released. Then an excess of KOH was added and after 24 hours the solution was titrated with 0.1 or 0.01 HCl. […] The results are presented in FIG. 4A. pH was measured outside of the dialysis bags each hour between 1 to 10 and periodically up to 48 hours (FIG. 4B).

**Q.** For `CC(O)C(=O)O` (stereo not drawn) [LA, lactic acid], which “Mucoadhesiveness, Fluid” value [1] is on record?
**A.** Its value is 0.

**Q.** What about the “release from the dialysis bag” value ([2]; 200 mg in dialysis bag, 50 ml water, 37° C.) of the same compound?
**A.** Its value is “immediately”.

**Q.** What about the “ability to maintain constant acidic pH outside the dialysis bag” value ([2]; 50 ml water 37° C., replaced after 3, 6, 24, 48 h) of the same compound?
**A.** Its value is “not able to maintain acidic pH constant”.
